Measured values published in patent publication EP4159720A1, “NONSYMMETRIC SUBSTITUTED 1,1'-BIPHENYL DERIVATIVES AND USES THEREOF” (Recepton Spolka z Ograniczona Odpowiedzialnoscia, priority 2021, dated 2023).
Where a name gives a salt, the structure may show the parent alone.

Assays:
[1] = target: T1, PD-1/PD-L1 interaction (Homo sapiens, UniProt Q9NZQ7); assay: PD-1/PD-L1 Blockade Bioassay (Promega J1252; NFAT cellular assay); type: cell-based; conditions: PD-1 Effector Jurkat cells co-cultured with PD-L1 aAPC/CHO-K1 cells for 6 h; NFAT-RE luminescence; three replications
T1 construct: host or cells: PD-L1 aAPC/CHO-K1 cells; PD-1 Effector Jurkat T cells
T1 sequence (Q9NZQ7 19-290): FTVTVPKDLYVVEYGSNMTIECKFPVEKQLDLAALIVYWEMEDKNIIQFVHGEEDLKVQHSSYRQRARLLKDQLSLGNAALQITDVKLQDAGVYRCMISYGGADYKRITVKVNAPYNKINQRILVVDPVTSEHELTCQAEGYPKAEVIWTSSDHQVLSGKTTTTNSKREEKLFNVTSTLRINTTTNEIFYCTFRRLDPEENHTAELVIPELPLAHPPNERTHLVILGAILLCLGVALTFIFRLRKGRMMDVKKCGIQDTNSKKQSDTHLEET
Procedure: The potency of blocking the PD-1/PD-L1 pathway was assessed using the PD-1/PD-L1 Blockade Bioassay (Promega, cat. J1252). This assay relies on two genetically engineered cell lines: PD-1 Effector cells (Jurkat T cells expressing human PD-1 and luciferase driven by NFAT response element) and PD-L1 aAPC/CHO-K1 cells (CHO-K1 cells expressing human PD-L1 and cell surface protein designed to activate cognate T-cell Receptors in an antigen-independent manner). When the two cell types are co-cultured, the PD-1/PD-L1 interaction inhibits TCR signaling and NFAT-RE-mediated luminescence. Addition of either an anti-PD-1 or anti-PD-L1 antibody that blocks the PD-1/PD-L1 interaction releases the inhibitory signal and leads to TCR activation and the NFAT-RE-mediated luminescence, which is then measured on a microplate reader. The assay was performed according to the manufacturer's manual. PD-L1 aAPC/CHO-K1 cells were plated in 96-well, white, flat bottom assay plates at […] cells in 100 µL of medium (Ham's F12, 10% FBS) and incubated overnight at 37°C, 5% CO2. The next day, the medium was removed from the assay plate and serially diluted compounds as listed in table 1 were added at 40 µL per well in the assay buffer (RPMI1640 + 1% FBS + 0,5% DMSO). Next, PD-1 Effector Jurkat cells were resuspended in the assay buffer (RPMI 1640 + 1% FBS) at a concentration of 1,25 × 10^6 cells/mL and added to the assay plate at 40 µL per well (total of […]). The cells were co-cultured for 6 h (37°C, 5% CO2) and then removed from the incubator and equilibrated for 5 min at room temperature. The Bio-GloTM Reagent (Promega, cat. G7941) was prepared according to the manufacturer's instructions and added to each well at 80 µL per well. The results were baseline-corrected to non-treated controls, averaged from three replications and fitted with a 4-parameters variable slope.

[2] = target: T2, hPD-1 (50 nM) and hPD-L1 (5 nM) protein complex (Homo sapiens, UniProt Q9NZQ7); assay: Homogenous Time Resolved Fluorescence (HTRF) assay, Cisbio kit 64ICP01PEG; type: binding; conditions: activity range from Hill curve fit; 1 h incubation at room temperature; TR-FRET; three independent measurements
T2 construct: purchased Cisbio 64ICP01PEG
T2 sequence (Q9NZQ7 19-238 limits assumed, one chain of several): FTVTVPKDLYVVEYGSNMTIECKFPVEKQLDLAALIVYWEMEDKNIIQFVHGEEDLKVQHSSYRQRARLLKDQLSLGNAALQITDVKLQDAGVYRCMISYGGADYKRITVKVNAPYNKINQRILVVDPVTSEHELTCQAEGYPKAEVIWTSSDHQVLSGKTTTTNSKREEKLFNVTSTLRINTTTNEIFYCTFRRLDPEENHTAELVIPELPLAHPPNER
Procedure: The biological activity of the compounds described in the previous section was tested by the Homogenous Time Resolved Fluorescence (HTRF) method. Determination was carried out with the use of putty from the Cisbio company (catalog number 64ICP01PEG) in the 20 µL format using the protocol from the manufacturer. Compounds in the concentration range allowing determination of biological activity from the inflection curve were added to the hPD-1 (50 nM) and hPD-L1 (5 nM) protein complex with antibodies and allowed to incubate for one hour at room temperature before measuring Forster resonant energy transfer (TR-FRET) on a Tecan Spark 20M instrument. The results were normalized to a positive control (complex without inhibitor) and negative control (no hPD-1), averaged from three independent measurements and fitted with a Hill curve.
Ranges of activity of the tested compounds: "very good" (+++) below 20 nM, "moderate" (++) - 20-50 nM and "low" (+) - 50 nM - 1 µM.

SMILES	EC50 [1]	IC50 [2]
COc1cc(C(=O)Nc2cccc(-c3cccc(NC(=O)c4ccc(CN(C)CCO)cn4)c3C)c2C)ncc1CN[C@@H]1CCC[C@H]1O [Compound R1_C451_1, 5-((((1R,2R)-2-hydroxycyclopentyl)amino)methyl)-N-(3'-(5-(((2-hydroxyethyl)(methyl)amino)methyl)picolinamido)-2,2'-dimethyl-[1,1'-biphenyl]-3-yl)-4-methoxypicolinamide trihydrochloride]	234 nM	
COc1cc(C(=O)Nc2cccc(-c3cccc(NC(=O)c4ccc(CN(C)CCO)cn4)c3C)c2C)ncc1CN(C)CCO [Compound R1_C450, 5-(((2-hydroxyethyl)(methyl)amino)methyl)-N-(3'-(5-(((2-hydroxyethyl)(methyl)amino)methyl)picolinamido)-2,2'-dimethyl-[1,1'-biphenyl]-3-yl)-4-methoxypicolinamide]	206 nM	< 20 nM
COc1cc(C(=O)Nc2cccc(-c3cccc(NC(=O)c4cc(OC)c(CNCCCO)cn4)c3C)c2C)ncc1CNCCO [Compound R1_C454, 5-(((2-hydroxyethyl)amino)methyl)-N-(3'-(5-(((3-hydroxypropyl)amino)methyl)-4-methoxypicolinamido)-2,2'-dimethyl-[1,1'-biphenyl]-3-yl)-4-methoxypicolinamide]	480 nM	50 to 1000 nM
COc1cc(C(=O)Nc2cccc(-c3cccc(NC(=O)c4cc(OC)c(CN[C@@H](C)CO)cn4)c3C)c2C)ncc1CNC(CO)CO [Compound R1_C446, (S)-5-(((1,3-dihydroxypropan-2-yl)amino)methyl)-N-(3'-(5-(((1-hydroxypropan-2-yl)amino)methyl)-4-methoxypicolinamido)-2,2'-dimethyl-[1,1'-biphenyl]-3-yl)-4-methoxypicolinamide]	205 nM	< 20 nM

Stronger by EC50 [1], values ahead:

EC50 [1]	IC50 [2]	SMILES
176 nM	< 20 nM	COc1cc(C(=O)Nc2cccc(-c3cccc(NC(=O)c4cc(OC)c(CN(C)CCO)cn4)c3C)c2C)ncc1CN[C@@H](C)CO [Compound R1_C441, (S)-5-(((2-hydroxyethyl)(methyl)amino)methyl)-N-(3'-(5-(((1-hydroxypropan-2-yl)amino)methyl)-4-methoxypicolinamido)-2,2'-dimethyl-[1,1'-biphenyl]-3-yl)-4-methoxypicolinamide]
159 nM	< 20 nM	COc1cc(C(=O)Nc2cccc(-c3cccc(NC(=O)c4ccc(CN(C)CCO)cn4)c3C)c2C)ncc1CN[C@@H](C)CO [Compound R1_C458, (S)-N-(3'-(5-(((2-hydroxyethyl)(methyl)amino)methyl)picolinamido)-2,2'-dimethyl-[1,1'-biphenyl]-3-yl)-5-(((1-hydroxypropan-2-yl)amino)methyl)-4-methoxypicolinamide]
150 nM	< 20 nM	COc1cc(C(=O)Nc2cccc(-c3cccc(NC(=O)c4cc(OC)c(CN[C@@H]5CCC[C@H]5O)cn4)c3C)c2C)ncc1CNC(CO)CO [Compound R1_C445, 5-(((1,3-dihydroxypropan-2-yl)amino)methyl)-N-(3'-(5-((((1R,2R)-2-hydroxycyclopentyl)amino)methyl)-4-methoxypicolinamido)-2,2'-dimethyl-[1,1'-biphenyl]-3-yl)-4-methoxypicolinamide]
143 nM	< 20 nM	COc1cc(C(=O)Nc2cccc(-c3cccc(NC(=O)c4cc(OC)c(CN[C@@H](C)CO)cn4)c3C)c2C)ncc1CNCCCO [Compound R1_C453, (S)-5-(((1-hydroxypropan-2-yl)amino)methyl)-N-(3'-(5-(((3-hydroxypropyl)amino)methyl)-4-methoxypicolinamido)-2,2'-dimethyl-[1,1'-biphenyl]-3-yl)-4-methoxypicolinamide]
68 nM	< 20 nM	COc1cc(C(=O)Nc2cccc(-c3cccc(NC(=O)c4ccc(CN(C)CCO)cn4)c3C)c2C)ncc1CN[C@@H]1CCC[C@H]1O [Compound R1_C451, 5-((((1R,2R)-2-hydroxycyclopentyl)amino)methyl)-N-(3'-(5-(((2-hydroxyethyl)(methyl)amino)methyl)picolinamido)-2,2'-dimethyl-[1,1'-biphenyl]-3-yl)-4-methoxypicolinamide]
44.6 nM	< 20 nM	COc1cc(C(=O)Nc2cccc(-c3cccc(NC(=O)c4cc(OC)c(CN[C@@H](C)CO)cn4)c3C)c2C)ncc1CN[C@H]1CCC[C@@H]1O [Compound R1_C428, 5-((((1S,2S)-2-hydroxycyclopentyl)amino)methyl)-N-(3'-(5-((((S)-1-hydroxypropan-2-yl)amino)methyl)-4-methoxypicolinamido)-2,2'-dimethyl-[1,1'-biphenyl]-3-yl)-4-methoxypicolinamide]
